Source: patent US20230405151A1, “USE OF IRAK4 MODULATORS FOR GENE THERAPY” (Genzyme Corporation, priority 2022, published 2023)

Experiments:
[1] = system: C57BL/6J mice injected with AAV (LacZ transgene); assay: In vivo mouse AAV model: intracellular cytokine staining of splenocytes; settings: chow 30 mg/kg from 15 days prior to AAV; day 21; versus AAV group; N=10
Method: In-vivo mice experiments. C57BL/6J mice were purchased from Jackson Laboratories. 6-8-week male mice were divided into 3 groups—PBS group, AAV group and AAV+IRAK4 group all groups with 10 mice each. Zimlovisertib IRAK4 inhibitor (Synonyms: PF-06650833) Cat. No.: HY-19836 (MedChemExpress) was mixed with mouse chow Catalog #2016, Teklad Global 16% Protein Rodent Diets https://www.inotivco.com/rodent-natural-ingredient-2016-diets at a dose of 30 mg/kg. AAV+IRAK4 group was fed the chow with Zimlovisertib IRAK4 inhibitor 15 days prior to AAV injection whereas PBS and AAV group were fed with mouse chow Catalog #2016, Teklad Global 16% Protein Rodent Diets https://www.inotivco.com/rodent-natural-ingredient-2016-diets. PBS group mice were injected intramuscularly with 100 ul PBS, AAV group was injected intramuscularly with 1e11 vg per quadricep muscle of both legs, 100 ul volume.
Intracellular cytokine staining. Splenocytes were harvested from mouse spleens, and 2 million cells were seeded on a 96-well U-bottom plate. The cells were centrifuged at 2,000 rpm for 5 minutes and then resuspended with 100 μl of the RPMI containing 10% FBS and 1×2-mercaptoethanol. 10 μg/ml concentration of AAVrh32.33 overlapping peptide, AAVrh32.33 LacZ immunodominant peptide, and LacZ immunodominant peptide were prepared in the RPMI1640 containing 10% FBS, 1×2-mercaptoethanol, and 1:500 GolgiStop. For the positive control, 0.10 μg/ml PMA and 2 μg/ml Ionomycin solution were prepared in the RPIM1640 containing 10% FBS, 1×2-mercaptoethanol, and 1:500 GolgiStop. Then, 100 μl of the prepared solution was added to the cells, resulting in a final concentration of 5 μg/ml (or 0.05 μg/ml PMA and 1 μg/ml Ionomycin). The cells were incubated at 37° C. 5% CO2 incubator overnight to stimulate the cells. The next day, the cells were centrifuged at 2,000 rpm for 5 minutes, and then washed with the FACS buffer one time. The cells were stained with an antibody cocktail (1:100 anti-CD4 FITC, 1:100 anti-CD8a PerCP-Cy5.5, 1:100 anti-CD44 Pacific Blue, 1:100 Live/Dead Cell Stain Kit) for 30 minutes at 4° C. […]

IRAK4 protein = target: T1, IRAK4 protein (Mus musculus, UniProt Q8R4K2); assay: In vivo mouse AAV model: IRAK4 expression in PBMC immune cell types by flow cytometry; settings: chow 100 mg/kg from 15 days prior to AAV; day 14; N=6
T1 construct: from tissue; host or cells: PBMCs from blood of C57BL/6J mice
T1 sequence (Q8R4K2 1-459): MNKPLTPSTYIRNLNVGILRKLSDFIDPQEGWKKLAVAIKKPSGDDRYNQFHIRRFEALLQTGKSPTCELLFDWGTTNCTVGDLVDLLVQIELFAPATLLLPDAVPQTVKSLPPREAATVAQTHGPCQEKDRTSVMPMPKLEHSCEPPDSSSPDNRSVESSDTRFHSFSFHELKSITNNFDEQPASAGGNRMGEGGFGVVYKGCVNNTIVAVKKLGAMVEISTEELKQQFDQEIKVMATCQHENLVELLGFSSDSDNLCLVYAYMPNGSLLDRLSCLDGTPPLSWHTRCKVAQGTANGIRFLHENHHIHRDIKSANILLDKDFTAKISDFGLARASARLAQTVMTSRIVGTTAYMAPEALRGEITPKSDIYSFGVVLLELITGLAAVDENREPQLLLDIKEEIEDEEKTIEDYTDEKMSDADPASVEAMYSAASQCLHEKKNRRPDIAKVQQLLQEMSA
Method: The same experiment design was followed with n=6 mice in each group PBS group, AAV group and AAV+IRAK4 degrader PROTAC IRAK4 degrader-1 Cat. No.: HY-129966 (MedChemExpress) that was mixed with chow at 100 mg/kg and fed to mice 15 days prior to AAV injection. […] AAV capsid used in the study had LacZ transgene. All animal experiments were conducted in accordance with the Institutional Animal Care and Use Committees at Sanofi, Framingham. Submandibular bleeds were performed weekly, and necropsy was performed three weeks post AAV injection.
PBMC isolation and surface staining. 120 ul blood was collected in K2EDTA coated tubes. The blood was mixed with DBPS at 1:1 ration and pipetted into a separate tube containing Ficoll (GE17-5442-02) to ensure no mixing of the blood and Ficoll phases. The mixture was centrifuged at 2000 RPM for 25 minutes at room temperature (9 acceleration and no braking). The buffy coat containing the peripheral blood mononuclear cells (PBMCs) was collected, transferred to a new tube, and centrifuged for five minutes at 400 RCF. PBMCs were washed three times with phosphate buffered saline (PBS) containing 1% fetal bovine serum (FBS) or fetal calf serum (FCS) and counted. The PBMC cells thus obtained were stained with different antibodies to quantify percentage of different immune cell subsets in peripheral blood.
On day 14 mice were bled and PBMCs were harvested. […]

| SMILES | Interferon gamma producing activated CD8 T cells, splenocytes stimulated with AAV immunodominant peptide [1] | Interferon gamma producing activated CD8 T cells, splenocytes stimulated with AAV peptide pools [1] | Interferon gamma producing activated CD8 T cells, splenocytes stimulated with LacZ immunodominant peptide [1] | IRAK4 protein expression in all immune cell types evaluated in PBMCs (PBMCs, T cells, B cells, monocytes) (IRAK4 protein) |
| --- | --- | --- | --- | --- |
| CC[C@@H]1[C@H](F)C(=O)N[C@@H]1COc1nccc2cc(C(N)=O)c(OC)cc12 [zimlovisertib, 1-[[(2S,3S,4S)-3-Ethyl-4-fluoro-5-oxo-2-pyrrolidinyl]methoxy]-7-methoxy-6-isoquinolinecarboxamide] | reduce significantly | reduce significantly | reduce significantly | – |
| O=C1CCC(N2C(=O)c3cccc(NCc4cn(CCCNC(=O)c5ccc(-n6cc(NC(=O)c7coc(-c8ccnc(NCC9CC9)c8)n7)c(C(F)(F)F)n6)cc5)cn4)c3C2=O)C(=O)N1 (stereo not shown) [PROTAC IRAK4 degrader-1] | – | – | – | reduced significantly |
